Data from article PMC5739345, “Identification of iridoid synthases from Nepeta species: Iridoid cyclization does not determine nepetalactone stereochemistry” (Phytochemistry, 2018).

Tests used:
ISY (C. roseus) = molecular target: T1, ISY (C. roseus) (Catharanthus roseus, UniProt K7WDL7); test: end point assay, GC-MS of products; assay type: biochemical; conditions: 500 μM 8-oxogeranial, 1 mM NADPH, 200 mM MOPS pH 7.0, 100 mM NaCl, 0.5% THF, 30 °C, 3 h; positive control
T1 construct: positive control; construct not described here; dimer 83 kDa

NcISY2 = molecular target: T2, NcISY2 (Nepeta cataria, UniProt A0A221J5X1); test: end point assay, GC-MS of products; assay type: biochemical; conditions: 500 μM 8-oxogeranial, 1 mM NADPH, 200 mM MOPS pH 7.0, 100 mM NaCl, 0.5% THF, 0.5 μM enzyme, 30 °C, 3 h
T2 construct: gene ISY2; N-terminal His-tag (pOPINF), E. coli soluBL21 (DE3), Ni-NTA and gel filtration; not fully homogeneous; dimer fraction
T2 sequence (A0A221J5X1 2-397): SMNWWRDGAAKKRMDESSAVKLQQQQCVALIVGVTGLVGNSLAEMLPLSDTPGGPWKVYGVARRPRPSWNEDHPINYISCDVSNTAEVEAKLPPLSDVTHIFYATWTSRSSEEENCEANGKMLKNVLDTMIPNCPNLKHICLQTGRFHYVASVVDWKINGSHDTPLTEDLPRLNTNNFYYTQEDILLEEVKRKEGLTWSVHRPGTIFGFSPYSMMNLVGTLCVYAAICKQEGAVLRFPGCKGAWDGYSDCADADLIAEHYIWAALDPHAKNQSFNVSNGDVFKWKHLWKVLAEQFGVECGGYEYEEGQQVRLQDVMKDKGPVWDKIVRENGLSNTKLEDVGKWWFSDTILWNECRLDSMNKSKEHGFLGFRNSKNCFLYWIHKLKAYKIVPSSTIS

T1 sequence (K7WDL7 whole entry): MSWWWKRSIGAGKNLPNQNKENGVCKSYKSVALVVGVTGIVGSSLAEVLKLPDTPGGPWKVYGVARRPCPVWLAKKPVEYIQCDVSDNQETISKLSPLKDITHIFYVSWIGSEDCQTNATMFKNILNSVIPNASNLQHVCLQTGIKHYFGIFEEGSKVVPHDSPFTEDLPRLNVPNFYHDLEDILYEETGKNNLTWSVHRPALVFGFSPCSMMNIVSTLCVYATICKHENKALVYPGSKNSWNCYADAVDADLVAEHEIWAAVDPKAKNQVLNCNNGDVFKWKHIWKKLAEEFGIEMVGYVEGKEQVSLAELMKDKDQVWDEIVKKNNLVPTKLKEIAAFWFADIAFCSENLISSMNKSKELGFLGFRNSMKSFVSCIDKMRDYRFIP

C/C(C=O)=C\CC/C(C)=C/C=O [8-oxogeranial]
end point assay, GC-MS of products (ISY (C. roseus)): a positive control was conducted with ISY (C. roseus) | end point assay, GC-MS of products (NcISY2): the other (NcISY2 and NmISY2) has robust catalytic activity toward the 8-oxogeranial substrate
